The source made the active and inactive calls. Rule as the data show it, for most assays here: actives have a measured AC50 and inactives only a lower limit.
Legend:
[1] = target: T1, Replicative DNA helicase DnaB (Mycobacterium tuberculosis, UniProt P9WMR3); test: DnaB intein splicing inhibitors, dose response, biochemical, cell-free fluorescence (AID 449749); assay type: functional
T1 sequence (P9WMR3 whole entry): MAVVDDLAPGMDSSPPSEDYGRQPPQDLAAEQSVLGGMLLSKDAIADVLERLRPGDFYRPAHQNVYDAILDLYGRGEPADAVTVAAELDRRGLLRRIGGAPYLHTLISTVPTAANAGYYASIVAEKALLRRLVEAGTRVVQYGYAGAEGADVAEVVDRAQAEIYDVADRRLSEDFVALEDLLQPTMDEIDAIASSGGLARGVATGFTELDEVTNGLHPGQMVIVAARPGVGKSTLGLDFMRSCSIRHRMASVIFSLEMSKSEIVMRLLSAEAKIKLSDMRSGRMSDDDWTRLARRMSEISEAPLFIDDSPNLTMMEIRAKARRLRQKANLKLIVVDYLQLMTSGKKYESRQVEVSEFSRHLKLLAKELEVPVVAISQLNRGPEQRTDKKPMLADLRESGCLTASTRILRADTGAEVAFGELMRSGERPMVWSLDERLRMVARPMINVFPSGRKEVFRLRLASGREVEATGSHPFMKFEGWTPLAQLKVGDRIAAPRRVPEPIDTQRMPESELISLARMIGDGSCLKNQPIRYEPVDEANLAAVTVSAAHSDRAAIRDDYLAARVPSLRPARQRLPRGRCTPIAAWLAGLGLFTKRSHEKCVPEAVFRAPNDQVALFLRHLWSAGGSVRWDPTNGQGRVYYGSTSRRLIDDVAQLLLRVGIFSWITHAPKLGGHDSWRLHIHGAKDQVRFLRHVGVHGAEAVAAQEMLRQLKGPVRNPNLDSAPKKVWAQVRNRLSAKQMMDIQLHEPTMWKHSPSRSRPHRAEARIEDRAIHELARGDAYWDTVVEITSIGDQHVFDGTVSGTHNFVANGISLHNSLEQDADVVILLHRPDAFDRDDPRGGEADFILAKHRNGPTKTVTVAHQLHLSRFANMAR

[2] = target: T2, Protein RecA (Mycobacterium tuberculosis, UniProt P9WHJ3); test: Fluorescence Cell-Free Homogeneous Dose Retest to Identify Inhibitors of RecA-Intein Splicing Activity. [Related pubchem assays (depositor defined):AID2097, AID2223, AID489010, AID492950]; assay type: functional
T2 sequence (P9WHJ3 whole entry): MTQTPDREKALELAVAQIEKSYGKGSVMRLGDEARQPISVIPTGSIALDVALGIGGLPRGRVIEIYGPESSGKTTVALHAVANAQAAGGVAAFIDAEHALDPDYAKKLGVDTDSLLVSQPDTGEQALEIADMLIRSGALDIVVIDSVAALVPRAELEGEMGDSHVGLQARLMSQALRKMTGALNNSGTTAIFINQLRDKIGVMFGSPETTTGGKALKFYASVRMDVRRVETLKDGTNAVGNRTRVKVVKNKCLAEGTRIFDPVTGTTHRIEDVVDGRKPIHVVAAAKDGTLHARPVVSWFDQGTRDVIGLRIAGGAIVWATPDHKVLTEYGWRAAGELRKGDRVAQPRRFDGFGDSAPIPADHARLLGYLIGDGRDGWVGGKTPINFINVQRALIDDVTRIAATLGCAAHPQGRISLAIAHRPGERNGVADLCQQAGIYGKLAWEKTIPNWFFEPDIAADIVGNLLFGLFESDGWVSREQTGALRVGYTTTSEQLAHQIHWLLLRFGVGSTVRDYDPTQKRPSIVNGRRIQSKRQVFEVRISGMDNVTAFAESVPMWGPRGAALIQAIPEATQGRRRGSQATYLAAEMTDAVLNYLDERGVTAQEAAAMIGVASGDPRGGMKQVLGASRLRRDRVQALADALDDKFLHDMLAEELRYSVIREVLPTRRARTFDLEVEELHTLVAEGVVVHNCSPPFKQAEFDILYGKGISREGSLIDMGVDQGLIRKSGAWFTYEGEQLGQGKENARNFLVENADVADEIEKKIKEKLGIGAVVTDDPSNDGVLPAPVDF

[3] = target: T3, Histone-lysine N-methyltransferase NSD2 (Homo sapiens, UniProt O96028); assay type: biochemical
T3 sequence (O96028 whole entry): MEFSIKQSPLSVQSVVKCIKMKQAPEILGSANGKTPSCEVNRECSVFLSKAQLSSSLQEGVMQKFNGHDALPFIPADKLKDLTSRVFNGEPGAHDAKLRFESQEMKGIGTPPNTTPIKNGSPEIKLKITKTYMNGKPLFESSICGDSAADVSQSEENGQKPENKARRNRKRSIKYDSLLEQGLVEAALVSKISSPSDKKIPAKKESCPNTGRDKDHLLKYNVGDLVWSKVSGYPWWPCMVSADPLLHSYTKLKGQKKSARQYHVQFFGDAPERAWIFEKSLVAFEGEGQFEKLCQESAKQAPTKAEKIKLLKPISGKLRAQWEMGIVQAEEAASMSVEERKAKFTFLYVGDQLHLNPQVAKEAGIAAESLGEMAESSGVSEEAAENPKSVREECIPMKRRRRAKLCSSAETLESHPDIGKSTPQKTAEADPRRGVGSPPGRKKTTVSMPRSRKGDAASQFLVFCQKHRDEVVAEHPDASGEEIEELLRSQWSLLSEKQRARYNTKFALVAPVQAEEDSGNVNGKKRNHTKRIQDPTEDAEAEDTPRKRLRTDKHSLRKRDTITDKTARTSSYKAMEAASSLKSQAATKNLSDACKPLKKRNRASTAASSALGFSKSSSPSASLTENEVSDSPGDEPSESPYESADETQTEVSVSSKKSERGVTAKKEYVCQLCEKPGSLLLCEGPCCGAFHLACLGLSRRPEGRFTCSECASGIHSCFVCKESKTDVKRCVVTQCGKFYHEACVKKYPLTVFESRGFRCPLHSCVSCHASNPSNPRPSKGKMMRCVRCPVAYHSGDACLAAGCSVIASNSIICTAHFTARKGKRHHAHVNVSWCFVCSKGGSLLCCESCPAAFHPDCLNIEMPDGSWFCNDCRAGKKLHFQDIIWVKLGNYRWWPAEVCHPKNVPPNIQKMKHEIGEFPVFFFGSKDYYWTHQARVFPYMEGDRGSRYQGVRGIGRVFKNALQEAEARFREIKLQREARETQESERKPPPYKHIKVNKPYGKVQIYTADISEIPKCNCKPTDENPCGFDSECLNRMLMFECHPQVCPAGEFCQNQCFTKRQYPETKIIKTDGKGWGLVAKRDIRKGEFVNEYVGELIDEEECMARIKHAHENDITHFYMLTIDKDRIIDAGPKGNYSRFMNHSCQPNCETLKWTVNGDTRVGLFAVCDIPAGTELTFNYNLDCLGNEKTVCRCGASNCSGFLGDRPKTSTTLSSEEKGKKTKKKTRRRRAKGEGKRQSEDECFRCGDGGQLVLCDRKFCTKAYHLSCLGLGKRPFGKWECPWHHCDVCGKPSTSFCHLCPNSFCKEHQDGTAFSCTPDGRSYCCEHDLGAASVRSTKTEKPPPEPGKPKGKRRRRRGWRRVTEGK

SMILES	AC50 [1]	EC50 [2]	AC50 [3]
CCc1ccc(S(=O)(=O)Nc2cc(SCC(=O)O)c(O)c3ccccc23)cc1	0.77 µM (active)	0.217 µM (active)	4.83 µM (active)
O=[N+]([O-])c1ccc(Sc2cccc[n+]2[O-])c2nonc12	5.25 µM (active)	4.93 µM (active)	5.12 µM (active)
N#Cc1c(N2CCCCC2)nc(N)c2c(N)nc(SCC(=O)O)cc12	24.9 µM (active)	9.14 µM (active)	–
Oc1c(Cl)cc(Cl)c(Cl)c1Cc1c(O)c(Cl)cc(Cl)c1Cl [HEXACHLOROPHENE]	1.81 µM (active)	7.27 µM (active)	–
CC1(C)Cc2ccccc2C2=NNC(=O)C2=N1	0.343 µM (active)	1.17 µM (active)	16.4 µM (active)

Reference: ChEMBL document CHEMBL1201862, “PubChem BioAssay data set” (2004)
